This passage reports IC50 and minimal effective concentration results from US6300501A, “Histidine-(N-benzyl glycinamide) inhibitors of protein farnesyl transferase” (Warner-Lambert Company, priority 1998, dated 2001).

What is called IC50 is the concentration needed to halve the response being measured.

The target in assay [1] is T1, SF9 affinity purified rat farnesyl protein transferase (Rattus norvegicus, UniProt Q02293+Q04631).
T1 construct: made in house; host or cells: Sf9 insect cells (baculovirus system inferred from b7)
T1 sequence (Q02293 whole entry, one chain of several): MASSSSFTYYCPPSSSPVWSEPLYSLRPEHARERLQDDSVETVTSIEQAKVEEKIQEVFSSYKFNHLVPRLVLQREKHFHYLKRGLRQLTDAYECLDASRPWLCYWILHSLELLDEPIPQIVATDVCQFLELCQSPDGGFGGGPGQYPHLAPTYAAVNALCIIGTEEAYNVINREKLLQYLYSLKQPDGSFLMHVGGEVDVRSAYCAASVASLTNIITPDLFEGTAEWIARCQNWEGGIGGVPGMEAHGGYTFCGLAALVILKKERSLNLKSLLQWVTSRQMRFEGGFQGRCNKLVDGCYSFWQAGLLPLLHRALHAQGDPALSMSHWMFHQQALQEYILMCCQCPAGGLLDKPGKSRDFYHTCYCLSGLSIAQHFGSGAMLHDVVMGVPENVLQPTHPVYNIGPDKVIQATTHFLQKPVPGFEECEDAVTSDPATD
Kind of assay: PFT inhibitory activity (radiolabeled farnesyl pyrophosphate, streptavidin bead assay). Format: biochemical. As for the experimental part: The protein:farnesyl transferase (PFT) or farnesyl protein transferase (FPT) inhibitory activity of compounds of the present invention were assayed in HEPES buffer (pH 7.4) containing 5 mM potassium phosphate and 20 μM ZnCl2. The solution also contained 5 mM DTT (dithiothreitol), 5 mM MgCl2, and 0.1% PEG 8000. Assays were performed in 96 well plates (Wallec) and employed solutions composed of varying concentrations of a compound of the present invention in 100% DMSO (dimethylsulfoxide). Upon addition of both substrates, radiolabeled farnesyl pyrophosphate ([1^3 H], specific activity 15-30 Ci/mmol, final concentration 134 nM) and (biotinyl)-Ahe-Thr-Lys-Cys-Val-Ile-Met ([3aS[3a alpha, 4 beta, 6a alpha]-hexahydro-2-oxo-1H-thieno[3,4-d]imidazole-5-pentanoic acid]-[7-aminoheptanoic acid]-Thr-Lys-Cys-Val-Ile-Met) (Ahe is 7-aminoheptanoic acid, Thr is threonine, Lys is lysine, Cys is cysteine, Val is valine, Ile is isoleucine and Met is methionine) (final concentration 0.2 μM), the enzyme reaction was started by addition of SF9 affinity purified rat farnesyl protein transferase. After incubation at 30° C. for 30 minutes, the reaction was terminated by diluting the reaction 2.5-fold with a stop buffer containing 1.5 M magnesium acetate, 0.2 M H3 PO4, 0.5% BSA (bovine serum albumin), and strepavidin beads (Amersham) at a concentration of 1.3 mg/mL. After allowing the plate to settle for 30 minutes at room temperature, radioactivity was quantitated on a microBeta counter (Model 1450, Wallec). The assay was also carried out without 5 mM potassium phosphate.

Assay [2] relates to ras farnesylation in ras-transformed cells. Description: Gel shift assay. The assay is classed as cell-based. As to conditions: ras-transformed cells, 18-hour incubation; read-out: Gel Shift (μM) MED (minimal effective dose to observe inhibition of ras farnesylation). How it is done: Twenty-four hours after planting 2×10^6 ras-transformed cells per treatment condition, the farnesylation inhibitor is added at varying concentrations. Following an 18-hour incubation period, cells are lysed in phosphate-buffered saline containing 1% Triton X-100, 0.5% sodium deoxycholate, and 0.1% SDS (sodium dodecyl sulfate), pH 7.4 in the presence of several protease inhibitors (PMSF (phenylmethylsulfonylfluoride), antipain, leupeptin, pepstatin A, and aprotinin all at 1 μg/mL). Ras protein is immunoprecipitated from the supernatants by the addition of 3 μg v-H-ras Ab-2 (Y13-259 antibody from Oncogene Science). After overnight immunoprecipitation, 30 μL of a 50% protein G-Sepharose slurry (Pharmacia) is added followed by 45-minute incubation. Pellets are resuspended in 2× tris-glycine loading buffer (Novex) containing 5% β-mercaptoethanol and then denatured by 5 minutes boiling prior to electrophoresis on 14% Tris-glycine SDS gels. Using Western transfer techniques, proteins are transferred to nitrocellulose membranes followed by blocking in blocking buffer. Upon overnight incubation with primary antibody (pan-ras Ab-2 from Oncogene Science), an antimouse HRP (horse radish peroxidase) conjugate secondary antibody (Amersham) is employed for detection of the ras protein. Blots are developed using ECL(enhanced chemiluminescence) techniques (Amersham).

In assay [3] the test system is H61 cells: NIH transformed 3T3 H-ras cells. Kind of assay: Clonogenic assay (6 well plates, soft agar). The assay is classed as cell-based. As to conditions: 312 h, colonies counted after Day 13, read-out: Clonogenic Assay IC50. As for the experimental part: Clonoaenic Assay (6 well lates)
Sometime previous to setting up an actual test:
1. Make up 1.5% Bacto Agar in Milli-Q water and autoclave.
2. Make up 500 mL 2× DMEM-HG without phenol red by combining the following:
1 bottle DMEM base powder (Sigma D-5030)
Adjust pH to 7.1 with HCL; filter sterilize.
1. Set up makeshift water bath (beaker of water with thermometer, on hot plate) in the hood. Keep water temperature between 37° C. to 43° C.
2. […] 1.5% Bacto Agar for approximately 2 minutes on high, or until completely melted. Then let it cool somewhat before using it. (You can keep it from resolidifying by setting the bottle on the hot plate.) […]
3. Bottom Layer (0.6% agar) Top Layer (0.3% agar)
20% calf serum 20% calf serum
40% Bacto Agar (1.5%) 20% Bacto Agar (1.5%)
Depending on the volume of each layer needed, use either 50 mL conical tubes or 200 mL turnip tubes which can be floated in the "water bath".
4. Add 1 mL of bottom layer agar/medium to each well: deliver 1 mL warm agar/medium to a well; then using the tip of the pipet, spread the agar/medium around to completely cover the bottom. Repeat with next well.
5. Allow the plates to set at room temperature for about 5 minutes until the bottom layer solidifies.
6. Label sterile Falcon 2054 (12×75 mm) tubes and add appropriate volume of drug solutions into them.
7. Aliquot 4 AL of DMSO or drug solution per 1 mL of agar/medium to appropriate tubes; then add the agar/medium/cells to each tube. Always add 1 mL more than will actually be needed. Mix up and down in the pipet (gently); then deliver 1 mL to the center of each well. The upper layer is less viscous, so it will generally spread out over the bottom layer unaided. If necessary, rotate the plane of the plate gently to spread the top layer evenly over the bottom layer.
8. Let plates set for 5 or 10 minutes at room temperature to solidify, then put into 5% CO2, 37° C. incubator.
9. On Day 13, add 0.5 mL of INT (tetrazolium 1 mg/mL in Milli-Q H2 O, filter sterilized) and return plates to incubator.

[4] abbreviates: HEPES buffer pH 7.4, without 5 mM potassium phosphate, read-out: IC50 (μM) Hepes.
Setting [5] is: HEPES buffer pH 7.4 containing 5 mM potassium phosphate, read-out: IC50 (μM) 5 mM K3 PO4 -2.

Read-outs that look alike come from different tables or passages of the source. A value given as a limit tells only on which side of the number the result lay.

In the case of `CC(C)CN(CC(=O)NCC(C)c1ccccc1)C(=O)[C@H](Cc1c[nH]cn1)NC(=O)OCc1ccccc1` (stereo partly drawn) [Example 62, (S)-(2-(1H-Imidazol-4-yl)-1-{isobutyl-[(2-phenyl-propylcarbamoyl)-methyl]-carbamoyl}-ethyl)-carbamic Acid Benzyl Ester], the IC50 in assay [1] (setting [4]) is 2.6 µM; in assay [1] (setting [5]), 0.029 µM.

`CN(Cc1ccccc1)C(=O)N[C@@H](Cc1c[nH]cn1)C(=O)N(CC(=O)NCC(C)(C)c1ccccc1)Cc1ccc(Cl)cc1` [Example 58, (S)-2-(3-Benzyl-3-methyl-ureido)-N-(4-chloro-benzyl)-3-(1H-imidazole-4-yl)-N-[(2-methyl-2-phenyl-propylcarbamoyl)-methyl]-propionamide]: the minimal effective concentration in assay [2] is 0.05 µM. In addition, the IC50 in assay [1] (setting [4]) is 0.029 µM; in assay [1] (setting [5]), 0.005 µM.

“[1-{Cyclohexylmethyl-[(2-phenyl-propylcarbamoyl)-methyl]-carbamoyl}-2-(3H-imidazole-4-yl)-ethyl]-carbamic Acid Benzyl Ester [Example 61]”: the minimal effective concentration in assay [2] amounted to 0.01 µM. For the same compound, the IC50 turned out to be 0.66 µM in assay [1] (setting [4]) and 0.018 µM in assay [1] (setting [5]).

With `CC(C)(CNC(=O)CN(Cc1ccc(OCc2ccccc2)cc1)C(=O)[C@H](Cc1c[nH]cn1)NC(=O)OCc1ccsc1)c1ccccc1` [Example 54, (S)-[1-{(4-Benzyloxy-benzyl)-[(2-methyl-2-henyl-propylcarbamoyl)-methyl]-carbamoyl}-2-(1H-imidazole-4-yl)-ethyl]-carbamic acid thiophen-3-ylmethyl Ester], in assay [2], the minimal effective concentration was determined as 0.2 µM. The IC50 in assay [1] (setting [4]) worked out at 0.2 µM; in assay [1] (setting [5]), 0.0012 µM.

On to `CC(C)(CNC(=O)CN(Cc1ccccc1OCc1ccncc1)C(=O)[C@H](Cc1c[nH]cn1)NC(=O)OCc1ccccc1)c1ccccc1` [Example 60, (S)-(2-(1H-Imidazole-4-yl)-1-{[(2-methyl-2-phenyl-propylcarbamoyl)-methyl]-[2-(pyridin-4-ylmethoxy)-benzyl]-carbamoyl}-ethyl)-carbamic Acid Benzyl Ester], for which the minimal effective concentration in assay [2] came out at 0.05 µM. Also, the IC50 stood at 0.14 µM in assay [1] (setting [4]) and 0.016 µM in assay [1] (setting [5]).

With `CC(CNC(=O)CN(Cc1ccc(N(C)C)cc1)C(=O)[C@H](Cc1c[nH]cn1)NC(=O)OCc1ccccc1)c1ccccc1` (stereo partly drawn) [Example 48, (S)-[1-{(4-Dimethylamino-benzyl)-[(2-phenyl-propylcarbamoyl)-methyl]-carbamoyl}-2-(1H-imidazole-4-yl)-ethyl]-carbamic Acid Benzyl Ester], in assay [2], the minimal effective concentration amounted to 0.05 µM. The IC50 in assay [1] (setting [4]) is 0.5 µM; in assay [1] (setting [5]), 0.0029 µM.

Consider `CC(CNC(=O)CN(Cc1ccc(OCc2ccccc2)cc1)C(=O)[C@H](Cc1c[nH]cn1)NC(=O)NCc1ccccc1)c1ccccc1` (stereo partly drawn) [Example 26, (S)-N-(4-Benzyloxy-benzyl)-2-(3-benzyl-ureido)-3-(1H-imidazole-4-yl)-N-[(2-phenyl-propylcarbamoyl)-methyl]-propionamide], for which the IC50 came out at 0.15 µM in assay [1] (setting [4]) and 0.009 µM in assay [1] (setting [5]).

On to `CC(CNC(=O)CN(Cc1ccc(Br)cc1)C(=O)[C@H](Cc1c[nH]cn1)NC(=O)OCc1ccccc1)c1ccccc1` (stereo partly drawn) [Example 29, (S)-[1-{(4-Bromo-benzyl)-[(2-phenyl-propylcarbamoyl)-methyl]-carbamoyl}-2-(1H-imidazole-4-yl)-ethyl]-carbamic Acid Benzyl Ester], for which, in assay [2], the minimal effective concentration is 0.1 µM. The IC50 in assay [3] was over 1000 nM.

In the case of `Cc1ccc(CN(CC(=O)NCC(C)(C)c2ccccc2)C(=O)[C@H](Cc2c[nH]cn2)NC(=O)OCc2ccccc2)cc1` [Example 56, (S)-(2-(1H-Imidazole-4-yl)-1-{(4-methyl-benzyl)-[(2-methyl-2-phenyl-propylcarbamoyl)-methyl]-carbamoyl}-ethyl)-carbamic Acid Benzyl Ester], in assay [2], the minimal effective concentration was 0.05 µM. The IC50 in assay [1] (setting [4]) was found to be 0.32 µM; in assay [1] (setting [5]), 0.012 µM.

Take `COc1cccc(CN(CC(=O)NCC(C)(C)c2ccccc2)C(=O)[C@H](Cc2c[nH]cn2)NC(=O)OCc2ccccc2)c1` [Example 59, (S)-(2-(1H-Imidazole-4-yl)-1-{(3-methoxy-benzyl)-[(2-methyl-2-phenyl-propylcarbamoyl)-methyl]-carbamoyl}-ethyl)-carbamic Acid Benzyl Ester]: the minimal effective concentration in assay [2] was found to be 0.05 µM. Moreover, the IC50 in assay [1] (setting [4]) was determined as 0.52 µM; in assay [1] (setting [5]), 0.004 µM.

For `COc1ccccc1CN(CC(=O)NCC(C)(C)c1ccccc1)C(=O)[C@H](Cc1c[nH]cn1)NC(=O)OCc1ccccc1` [Example 57, (S)-(2-(1H-Imidazole-4-yl)-1-{(2-methoxy-benzyl)-[(2-methyl-2-phenyl-propylcarbamoyl)-methyl]-carbamoyl}-ethyl)-carbamic Acid Benzyl Ester], the IC50 in assay [1] (setting [4]) was 0.38 µM; in assay [1] (setting [5]), 0.0052 µM.

As to `CC(C)(CNC(=O)CN(Cc1ccccn1)C(=O)[C@H](Cc1c[nH]cn1)NC(=O)OCc1ccccc1)c1ccccc1` [Example 46, (S)-(2-(1H-Imidazole-4-yl)-1-{[(2-methyl-2-phenyl-propylcarbamoyl)-methyl]-pyridin-2-ylmethyl-carbamoyl}-ethyl)-carbamic Acid Benzyl Ester], the minimal effective concentration in assay [2] is 1 µM. Moreover, the values for the IC50 in assay [1] (setting [4]) and in assay [1] (setting [5]) were 1.98 µM and 0.034 µM, respectively.

`CC(CNC(=O)CN(Cc1cccc2ccccc12)C(=O)[C@H](Cc1c[nH]cn1)NC(=O)OCc1ccccc1)c1ccccc1` (stereo partly drawn) [Example 37, (S)-(2-(1H-Imidazole-4-yl)-1-{naththalen-1-ylmethyl-[(2-phenyl-propylcarbamoyl)-methyl]-carbamoyl}-ethyl)-carbamic Acid Benzyl Ester]: in assay [2], the minimal effective concentration was at least 0.2 µM. The values for the IC50 in assay [1] (setting [4]) and in assay [1] (setting [5]) were 0.92 µM and 0.026 µM, respectively.

For the compound `CC(C(=O)NCC(C)(C)c1ccccc1)N(Cc1ccc(Cl)cc1)C(=O)[C@H](Cc1cnc[nH]1)NC(=O)OCc1ccccc1` (stereo partly drawn) [Example 55, (S)-[1-{(4-Chloro-benzyl)-[1-(2-methyl-2-phenyl-propylcarbamoyl)-ethyl]-carbamoyl}-2-(3H-imidazole-4-yl)-ethyl]-carbamic Acid Benzyl Ester], in assay [2], the minimal effective concentration came to 0.05 µM. Also, the IC50 was 0.86 µM in assay [1] (setting [4]) and 0.014 µM in assay [1] (setting [5]).
